Data from the supplement of paper PMC11208160.

Test: recombinant UMI read abundance after kanamycin selection (control-corrected) (log10(CPM+1)); higher = more efficient recombination; extreme values may be limits of the assay; sequences stand for … in AGTGCAGAGAAAATCGGCCAGTTTTCTCTGCCTGCAGTCCGCATGCCGTGGGACCCCTTGGGTTCTAACCTGTTGCCTAGATTTATGCAGCGGACTGCCTTTCTCCCAAAGTGATAAACCGG…AGGTTGGTTTCACT; site = the 11-nt donor
How it was run: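 Sequencing read counts were converted to CPM, averaged over two replicates and scaled by control-derived factors. Results are given as log10(CPM+1). The reads covered the donor–target junction of recombinant UMIs from a pooled Escherichia coli screen of donor and donor-binding-loop pairs for the IS621 bridge recombinase.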
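Further: IS621 bridge recombinase in Escherichia coli cells against a fixed T5 target plasmid.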

CTATTATCATGGACCGGTTTTCCCGGTAATCCGTATTTGAT (site CTAGTATCTGT)
recombinant UMI read abundance (log10): 0

CTATTATCATGGACCGGTTTTCCCGGTAATCCGTATTTGAT (site CTATTATCTAT)
recombinant UMI read abundance (log10): 1.18

CTATTTCCATGGACCGGTTTTCCCGGTAATCCGTATTTGGA (site CTATTTCCTTC)
recombinant UMI read abundance (log10): 0

CTCAATTCATGGACCGGTTTTCCCGGTAATCCGTATTTGCT (site CTCAATTCTAG)
recombinant UMI read abundance (log10): 1.7

CTCACAACATGGACCGGTTTTCCCGGTAATCCGTATTTGTG (site CTCACAACTCA)
recombinant UMI read abundance (log10): 0

CTCACACCATGGACCGGTTTTCCCGGTAATCCGTATTTGTC (site CTCACACCTGA)
recombinant UMI read abundance (log10): 0

CTCACGCCATGGACCGGTTTTCCCGGTAATCCGTATTTGTG (site CTCACGCCTCA)
recombinant UMI read abundance (log10): 0

CTCACTACATGGACCGGTTTTCCCGGTAATCCGTATTTGAG (site CTCACTACTCT)
recombinant UMI read abundance (log10): 0.232

CTCACTACATGGACCGGTTTTCCCGGTAATCCGTATTTGAG (site CTCCCTACTCT)
recombinant UMI read abundance (log10): 0

CTCACTACATGGACCGGTTTTCCCGGTAATCCGTATTTGAG (site CTCGCTACTCT)
recombinant UMI read abundance (log10): 0

CTCACTACATGGACCGGTTTTCCCGGTAATCCGTATTTGAG (site CTCTCTACTCT)
recombinant UMI read abundance (log10): 0

CTCACTCCATGGACCGGTTTTCCCGGTAATCCGTATTTGTA (site CTCACTCCTTA)
recombinant UMI read abundance (log10): 0.981

CTCATACCATGGACCGGTTTTCCCGGTAATCCGTATTTGGT (site CTCATACCTAC)
recombinant UMI read abundance (log10): 0

CTCATATCATGGACCGGTTTTCCCGGTAATCCGTATTTGAC (site CTAGTATCTGT)
recombinant UMI read abundance (log10): 0

CTCATATCATGGACCGGTTTTCCCGGTAATCCGTATTTGAC (site CTCATATCTGT)
recombinant UMI read abundance (log10): 1.29

CTCATTTCATGGACCGGTTTTCCCGGTAATCCGTATTTGTG (site CTCATTTCTCA)
recombinant UMI read abundance (log10): 0

CTCCAAGCATGGACCGGTTTTCCCGGTAATCCGTATTTGAG (site ATCCAAGCTCT)
recombinant UMI read abundance (log10): 0.0148

CTCCAAGCATGGACCGGTTTTCCCGGTAATCCGTATTTGAG (site CTCCAAGCTCT)
recombinant UMI read abundance (log10): 0.456

CTCCAAGCATGGACCGGTTTTCCCGGTAATCCGTATTTGAG (site GTCCAAGCTCT)
recombinant UMI read abundance (log10): 0.0157

CTCCAAGCATGGACCGGTTTTCCCGGTAATCCGTATTTGAG (site TTCCAAGCTCT)
recombinant UMI read abundance (log10): 0.018

CTCCACACATGGACCGGTTTTCCCGGTAATCCGTATTTGAC (site CTCCACACTGT)
recombinant UMI read abundance (log10): 2.47

CTCCACACATGGACCGGTTTTCCCGGTAATCCGTATTTGTA (site CACCACACTTA)
recombinant UMI read abundance (log10): 1.47

CTCCACACATGGACCGGTTTTCCCGGTAATCCGTATTTGTA (site CCCCACACTTA)
recombinant UMI read abundance (log10): 0.728

CTCCACACATGGACCGGTTTTCCCGGTAATCCGTATTTGTA (site CGCCACACTTA)
recombinant UMI read abundance (log10): 0.289

CTCCACACATGGACCGGTTTTCCCGGTAATCCGTATTTGTA (site CTCCACACTTA)
recombinant UMI read abundance (log10): 1.33

CTCCATACATGGACCGGTTTTCCCGGTAATCCGTATTTGAG (site CTCCATACTCT)
recombinant UMI read abundance (log10): 1.27

CTCCATACATGGACCGGTTTTCCCGGTAATCCGTATTTGAG (site CTCCCTACTCT)
recombinant UMI read abundance (log10): 0.0258

CTCCATACATGGACCGGTTTTCCCGGTAATCCGTATTTGAG (site CTCCGTACTCT)
recombinant UMI read abundance (log10): 0.0224

CTCCATACATGGACCGGTTTTCCCGGTAATCCGTATTTGAG (site CTCCTTACTCT)
recombinant UMI read abundance (log10): 0.0162

CTCCCTACATGGACCGGTTTTCCCGGTAATCCGTATTTGAA (site CTCCCTACTAT)
recombinant UMI read abundance (log10): 0.112

CTCCCTACATGGACCGGTTTTCCCGGTAATCCGTATTTGAA (site CTCCCTACTCT)
recombinant UMI read abundance (log10): 0.0285

CTCCCTACATGGACCGGTTTTCCCGGTAATCCGTATTTGAA (site CTCCCTACTGT)
recombinant UMI read abundance (log10): 0

CTCCCTACATGGACCGGTTTTCCCGGTAATCCGTATTTGAA (site CTCCCTACTTT)
recombinant UMI read abundance (log10): 0.46

CTCCCTACATGGACCGGTTTTCCCGGTAATCCGTATTTGAC (site CTCCCTACTAT)
recombinant UMI read abundance (log10): 0.576

CTCCCTACATGGACCGGTTTTCCCGGTAATCCGTATTTGAC (site CTCCCTACTCT)
recombinant UMI read abundance (log10): 0.293

CTCCCTACATGGACCGGTTTTCCCGGTAATCCGTATTTGAC (site CTCCCTACTGT)
recombinant UMI read abundance (log10): 1.88

CTCCCTACATGGACCGGTTTTCCCGGTAATCCGTATTTGAC (site CTCCCTACTTT)
recombinant UMI read abundance (log10): 0.415

CTCCCTACATGGACCGGTTTTCCCGGTAATCCGTATTTGAG (site ATCCCTACTCT)
recombinant UMI read abundance (log10): 0.0141

CTCCCTACATGGACCGGTTTTCCCGGTAATCCGTATTTGAG (site CACCCTACTCT)
recombinant UMI read abundance (log10): 0.112

CTCCCTACATGGACCGGTTTTCCCGGTAATCCGTATTTGAG (site CCCCCTACTCT)
recombinant UMI read abundance (log10): 0.0077

CTCCCTACATGGACCGGTTTTCCCGGTAATCCGTATTTGAG (site CGCCCTACTCT)
recombinant UMI read abundance (log10): 0.0122

CTCCCTACATGGACCGGTTTTCCCGGTAATCCGTATTTGAG (site CTACCTACTCT)
recombinant UMI read abundance (log10): 0.0126

CTCCCTACATGGACCGGTTTTCCCGGTAATCCGTATTTGAG (site CTCACTACTCT)
recombinant UMI read abundance (log10): 0.0117

CTCCCTACATGGACCGGTTTTCCCGGTAATCCGTATTTGAG (site CTCCATACTCT)
recombinant UMI read abundance (log10): 0.00249

CTCCCTACATGGACCGGTTTTCCCGGTAATCCGTATTTGAG (site CTCCCAACTCT)
recombinant UMI read abundance (log10): 0.00701

CTCCCTACATGGACCGGTTTTCCCGGTAATCCGTATTTGAG (site CTCCCCACTCT)
recombinant UMI read abundance (log10): 0.0165

CTCCCTACATGGACCGGTTTTCCCGGTAATCCGTATTTGAG (site CTCCCGACTCT)
recombinant UMI read abundance (log10): 0.0234

CTCCCTACATGGACCGGTTTTCCCGGTAATCCGTATTTGAG (site CTCCCTACTAT)
recombinant UMI read abundance (log10): 0.455

CTCCCTACATGGACCGGTTTTCCCGGTAATCCGTATTTGAG (site CTCCCTACTCA)
recombinant UMI read abundance (log10): 0.0198

CTCCCTACATGGACCGGTTTTCCCGGTAATCCGTATTTGAG (site CTCCCTACTCC)
recombinant UMI read abundance (log10): 0.0101

CTCCCTACATGGACCGGTTTTCCCGGTAATCCGTATTTGAG (site CTCCCTACTCG)
recombinant UMI read abundance (log10): 0.00797

CTCCCTACATGGACCGGTTTTCCCGGTAATCCGTATTTGAG (site CTCCCTACTCT)
recombinant UMI read abundance (log10): 0.248

CTCCCTACATGGACCGGTTTTCCCGGTAATCCGTATTTGAG (site CTCCCTACTGT)
recombinant UMI read abundance (log10): 0

CTCCCTACATGGACCGGTTTTCCCGGTAATCCGTATTTGAG (site CTCCCTACTTT)
recombinant UMI read abundance (log10): 0.0136

CTCCCTACATGGACCGGTTTTCCCGGTAATCCGTATTTGAG (site CTCCCTCCTCT)
recombinant UMI read abundance (log10): 0.00493

CTCCCTACATGGACCGGTTTTCCCGGTAATCCGTATTTGAG (site CTCCCTGCTCT)
recombinant UMI read abundance (log10): 0.0117

CTCCCTACATGGACCGGTTTTCCCGGTAATCCGTATTTGAG (site CTCCCTTCTCT)
recombinant UMI read abundance (log10): 0.0166

CTCCCTACATGGACCGGTTTTCCCGGTAATCCGTATTTGAG (site CTCCGTACTCT)
recombinant UMI read abundance (log10): 0.0179

CTCCCTACATGGACCGGTTTTCCCGGTAATCCGTATTTGAG (site CTCCTTACTCT)
recombinant UMI read abundance (log10): 0.00587

CTCCCTACATGGACCGGTTTTCCCGGTAATCCGTATTTGAG (site CTCGCTACTCT)
recombinant UMI read abundance (log10): 0.0283

CTCCCTACATGGACCGGTTTTCCCGGTAATCCGTATTTGAG (site CTCTCTACTCT)
recombinant UMI read abundance (log10): 0.00795

CTCCCTACATGGACCGGTTTTCCCGGTAATCCGTATTTGAG (site CTGCCTACTCT)
recombinant UMI read abundance (log10): 0.0259

CTCCCTACATGGACCGGTTTTCCCGGTAATCCGTATTTGAG (site CTTCCTACTCT)
recombinant UMI read abundance (log10): 0.0102

CTCCCTACATGGACCGGTTTTCCCGGTAATCCGTATTTGAG (site GTCCCTACTCT)
recombinant UMI read abundance (log10): 0.0115

CTCCCTACATGGACCGGTTTTCCCGGTAATCCGTATTTGAG (site TTCCCTACTCT)
recombinant UMI read abundance (log10): 0.00609

CTCCCTGCATGGACCGGTTTTCCCGGTAATCCGTATTTGAG (site CTCCCTACTCT)
recombinant UMI read abundance (log10): 0.664

CTCCCTGCATGGACCGGTTTTCCCGGTAATCCGTATTTGAG (site CTCCCTCCTCT)
recombinant UMI read abundance (log10): 0.00848

CTCCCTGCATGGACCGGTTTTCCCGGTAATCCGTATTTGAG (site CTCCCTGCTCT)
recombinant UMI read abundance (log10): 1.16

CTCCCTGCATGGACCGGTTTTCCCGGTAATCCGTATTTGAG (site CTCCCTTCTCT)
recombinant UMI read abundance (log10): 0.325

CTCCCTTCATGGACCGGTTTTCCCGGTAATCCGTATTTGAG (site CTCCCTACTCT)
recombinant UMI read abundance (log10): 0.0118

CTCCCTTCATGGACCGGTTTTCCCGGTAATCCGTATTTGAG (site CTCCCTCCTCT)
recombinant UMI read abundance (log10): 0.0285

CTCCCTTCATGGACCGGTTTTCCCGGTAATCCGTATTTGAG (site CTCCCTGCTCT)
recombinant UMI read abundance (log10): 0.00848

CTCCCTTCATGGACCGGTTTTCCCGGTAATCCGTATTTGAG (site CTCCCTTCTCT)
recombinant UMI read abundance (log10): 0.898

CTCCGAACATGGACCGGTTTTCCCGGTAATCCGTATTTGCG (site CTCCGAACTCG)
recombinant UMI read abundance (log10): 0.829

CTCCGTGCATGGACCGGTTTTCCCGGTAATCCGTATTTGGC (site CTCCGTGCTGC)
recombinant UMI read abundance (log10): 1.87
